How the values were obtained:
Type in all cases: cell-based
human GLP1R (hGLP1R) [1] = target: T1, human GLP1R (hGLP1R) (Homo sapiens, UniProt P43220); assay: Human GLP1R cAMP agonist assay (GloSensor); conditions: HEK293-SNAP-hGLP1R-GloSensor cells
How it was run: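 HEK293 cells stably expressing SNAP-tagged hGLP1R and the GloSensor-22F cAMP luciferase biosensor, pre-loaded 2 h with substrate, then exposed 12 min at rt to compound (30–0.06 μM, 0.5 mM IBMX, 0.1% BSA). Luminescence normalized to 2 nM GLP1(7-36); EC50 and Emax from 4-parameter logistic fit.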

human GLP1R (hGLP1R) [2] = target: T1, human GLP1R (hGLP1R); assay: Human GLP1R β-arrestin recruitment assay (PathHunter); design: insert synthesized by GeneArt 93-0164 (cells); 93-0491 (vector bundle); conditions: CHO-hGLP1R-β-arrestin cells; for EC50: mean n=2, read-out: Beta-Arrestin assay EC50 Mean; for Emax: relative to GLP1(7-36), read-out: Beta-Arrestin assay Emax
Method: (§1) Compounds 1 to 31 were tested in the following cellular assays that measure the intracellular cAMP concentration, beta-arrestin recruitment and receptor internalization. The cAMP is generated by the activation of GLP1R. The cAMP data obtained is shown in Table 1 (where S.E.M. is included, mean n=3 independent experiments+/−S.E.M). Beta-arrestin is recruited upon activation of GLP1R and the data obtained are shown in Table 2 (mean n=2 independent experiments, +/−S.D). The extent to which the GLP1R is internalized into the cell and away from the plasma membrane following activation is also shown in Table 2 (mean n=2 independent experiments, +/−S.D). EC50 for each assay is defined as the concentration of the compound that leads to half of the maximum response (after baseline correction). Emax is defined as the maximum response observed for the test compound, normalized to the maximum response observed for the endogenous ligand (GLP1(7-36)) to GLP1R.
The extent to which agonists recruited β-arrestin was measured using the PathHunter® β-arrestin assay (DiscoverX). This assay measures binding of β-arrestin to the receptor using an enzyme complementation approach. […] When β-arrestin is recruited to the receptor the enzyme becomes active and generates luminescence in the presence of a chemiluminescent substrate (PathHunter® Detection Kit, DiscoverX cat #93-0001). Luminescence can be measured on a relevant detector. CHO-hGLP1R-β-arrestin cells stably overexpressing hGLP1R with Prolink tag and β-arrestin with EA tag were seeded at 20 μL per well in white 384-well poly-D-Lysine coated plates (Greiner Bio One, cat #781945) in Plating Reagent 2 (DiscoverX, cat #93-0563R2A), and incubated overnight at 37° C., 5% CO2 with humidity. The following day, agonists were prepared at 5 times the final required concentration. To generate triplicate dose response curves, compounds were serially diluted 3-fold in assay buffer (HBSS, 10 mM Hepes and 0.1% BSA), then added to the cell assay plate to a final volume of 25 μL and final top concentrations starting at 30 μM. In the same plate and assay buffer as the tested compounds, were EC100 control wells containing GLP1 (7-36) peptide (Bachem, cat #H-6795) at a final concentration of 1 μM and also EC0 control wells containing no compound. The plate was incubated at 37° C., 5% CO2 with humidity for 2 h after adding the compounds to the cells. Then the detection reagent was prepared (19 parts cell assay buffer, 5 parts substrate reagent 1 and 1 part substrate reagent 2 as per manufacturers recommendations, DiscoverX cat #93-0001), and 12 μL were added per well to the cell assay plate. The plate was incubated for an additional hour in the dark at RT. Luminescence was then measured with an Envision 2104 Multilabel reader with “TRF Light Unit, 337 nm” (Perkin Elmer) using the Ultra-Sensitive protocol setting “384-well US luminescence detector” with the 384-well luminescence aperture, 0.1 sec per well. β-arrestin recruitment was calculated and expressed as percent of the GLP1 (7-36) EC100 control wells: [(sample signal−mean EC0 signal)/(mean EC100 of GLP1 (7-36) signal−mean EC0 signal)]*100 using Microsoft Excel. Curve fitting for EC50 determinations was performed using GraphPad Prism. The 4-parameter logistic model, Hill slope was used: Y=Bottom+(Top−Bottom)/(1+10^((Log EC50−X)*Hill Slope)), where Y is the functional response; X is the compound concentration; bottom is A0 or the minimum value (at 0 dose); top is Ainf or the maximum value (at infinite dose); EC50 is the point of inflection (i.e. the point on the sigmoid shaped curve halfway between A0 and Ainf). The EC50 value was calculated in μM. Emax is the maximal activity detected within the concentration range, derived from the fitted curve relative to GLP1(7-36). […]

human GLP1R = human GLP1R (Homo sapiens, UniProt P43220); assay: Human GLP1R DERET internalization assay; conditions: HEK293-SNAP-hGLP1R-GloSensor cells
Method: as §1
The extent to which agonists internalize the human GLP1R was determined based on an optimized version of a RealTime FRET-based ‘DERET’ (Dissociation Enhanced Resonance Energy Transfer) assay. The technology relies on labeling of the SNAP-tagged GPCR with a SNAP-Lumi-Terbium (donor fluorophore, Cisbio, cat #SSNPTBD). The compounds are incubated with the cells over-expressing the GPCR of interest in the presence of an excess of fluorescein (acceptor fluorophore). When the GPCR is on the cell surface, the donor signal is quenched by the acceptor and the donor/acceptor ratio is low. As the GPCR internalizes, the donor signal is no longer quenched, and the acceptor is no longer excited so the donor/acceptor ratio increases.
HEK293-SNAP-hGLP1R-GloSensor cells (stably overexpressing SNAP-tagged hGLP1R) were seeded overnight in white 384-well poly-D-Lysine coated plates (Greiner Bio One, cat #781945) in regular DMEM growth medium (Gibco, cat #11965-092, 10% heat-inactivated FBS, 10 mM HEPES, 1× penicillin/streptomycin, 0.5 mg/mL geneticin (Gibco, cat #10131-035) and 0.25 mg/mL hygromycin B (Invitrogen, cat #10687010). On the assay day, cell medium was removed and 100 nM SNAP-Lumi-Tb reagent was added in Opti-MEM solution. The cells were incubated at 37° C. for 1 h. Cells were washed using a plate washer in assay buffer [1×HBSS (10× Gibco, cat #14065-056), 20 mM Hepes (Gibco, cat #15630-080), 1 mM CaCl2 (Fluka, cat #21114-1L), 1 mM MgCl2 (Ambion, cat #AM9530G) pH7.4], and 20 μL buffer with 0.1% BSA was added to each well. After leaving cells to equilibrate for ˜15 min at 37° C., 10 μL of Fluorescein (sodium salt, Sigma, cat #F6377, diluted in buffer) was added at 25 μM final concentration. To generate triplicate dose response curves, compounds were serially diluted 3-fold in assay buffer, then added to the cell assay plate to a final volume of 40 μL and final top concentrations starting at 30 μM. In the same plate and assay buffer as the tested compounds, a GLP1 (7-36) peptide (Bachem, cat #H-6795) control curve was included at a final top concentration of 1 μM in order to establish EC100. EC0 wells with buffer only were also included. The plate FRET fluorescence was measured immediately using a Perkin Elmer Envision with LANCE/DELFIA D400 single mirror, excitation filter X320, and emission filters M615_203 (donor emission) and M515 (acceptor emission), and then measured every 30 min. […] Plates were kept at 37° C. between reads. Data was expressed as the ratio of donor/acceptor emissions using Microsoft Excel and plotted in GraphPad Prism. In order to determine EC50 and Emax for internalization, data was calculated and expressed as percent of the GLP1 (7-36) EC100 control wells: [(sample signal−mean EC0 signal)/(mean EC100 of GLP1 (7-36) signal−mean EC0 signal)]*100 using Microsoft Excel. Curve fitting for EC50 determinations was performed using GraphPad Prism. The 4-parameter logistic model, Hill slope was used:
Y=Bottom+(Top−Bottom)/(1+10^((Log EC50−X)*Hill Slope)), […]

T1 sequence (P43220 24-463): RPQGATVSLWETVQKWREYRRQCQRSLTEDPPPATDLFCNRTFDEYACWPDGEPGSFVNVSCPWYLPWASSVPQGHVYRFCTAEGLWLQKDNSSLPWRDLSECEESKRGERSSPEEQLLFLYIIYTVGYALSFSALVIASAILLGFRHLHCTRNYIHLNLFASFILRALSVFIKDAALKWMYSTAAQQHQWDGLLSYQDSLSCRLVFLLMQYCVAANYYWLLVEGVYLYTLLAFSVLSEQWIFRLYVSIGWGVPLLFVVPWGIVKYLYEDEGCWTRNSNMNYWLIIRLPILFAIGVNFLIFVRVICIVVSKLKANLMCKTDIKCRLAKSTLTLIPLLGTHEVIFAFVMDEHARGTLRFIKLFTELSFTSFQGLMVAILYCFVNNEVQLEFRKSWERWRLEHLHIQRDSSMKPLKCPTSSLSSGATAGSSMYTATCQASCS
Sequence of human GLP1R (P43220 24-463): as above

| Structure (SMILES) | Emax (human GLP1R (hGLP1R) [1]; cAMP, normalized to GLP1(7-36) maximum response, read-out: Emax mean) [%] | EC50 (human GLP1R (hGLP1R) [1]; intracellular cAMP, mean n=3 where SEM is given) [nM] | EC50 (human GLP1R (hGLP1R) [2]) [nM] | Emax (human GLP1R (hGLP1R) [2]) [%] | EC50 (human GLP1R; mean n=2) [nM] | Emax (human GLP1R; relative to GLP1(7-36)) [%] |
| --- | --- | --- | --- | --- | --- | --- |
| Cc1nc(CN2CCC(c3cccc4c3O[C@@](C)(c3ccc(Cl)cc3F)O4)CC2)n(C[C@@H]2CCO2)c1C(=O)O [Compound C-3, 2-((4-((S)-2-(4-chloro-2-fluorophenyl)-2-methylbenzo[d][1,3]dioxol-4-yl)piperidin-1-yl)methyl)-4-methyl-1-(((S)-oxetan-2-yl)methyl)-1H-imidazole-5-carboxylic acid] | 108 | 1.65 | > 30000 | 0 |  |  |
| C[C@]1(c2ccc(Cl)cc2F)Oc2cccc(C3CCN(Cc4nc5ccc(C(=O)O)cc5n4C[C@@H]4CCO4)CC3)c2O1 [Reference compound, 2-((4-((S)-2-(4-chloro-2-fluorophenyl)-2-methylbenzo[d][1,3]dioxol-4-yl)piperidin-1-yl)methyl)-1-(((S)-oxetan-2-yl)methyl)-1H-benzo[d]imidazole-6-carboxylic acid, reference compound] |  |  | 123 | 27 | 15 | 87 |

Source: US20240182456A1, “2-((4-((S)-2-(4-CHLORO-2-FLUOROPHENYL)-2-METHYLBENZO[D][1,3]DIOXOL-4-YL)PIPERIDIN-1-YL)METHYL)-1-(((S)-OXETAN-2-YL)METHYL)-1H-IMIDAZOLE DERIVATIVES AS ACTIVATORS OF THE GLP1 RECEPTOR FOR THE TREATMENT OF OBESITY” (Novartis AG, priority 2021, published 2024)
